Patent US5281717A, “Epoxysuccinamic acid derivatives” (Taisho Pharmaceutical Co., Ltd., priority 1990, dated 1994)
Where two headings read alike, the source gives them in different places.

Columns and labels:
Format in all cases: biochemical
μ CANP (Calpain I) = biological target: T1, μ CANP (Calpain I) (Homo sapiens, UniProt P07384); test: Inhibitory Activity Against CANP; conditions: pH 7.5, 30° C., preincubated 5 minutes, incubation 20 minutes, alkali-denatured casein
T1 construct: purchased Nacalai Tesque Inc
T1 sequence (P07384 2-714 limits assumed): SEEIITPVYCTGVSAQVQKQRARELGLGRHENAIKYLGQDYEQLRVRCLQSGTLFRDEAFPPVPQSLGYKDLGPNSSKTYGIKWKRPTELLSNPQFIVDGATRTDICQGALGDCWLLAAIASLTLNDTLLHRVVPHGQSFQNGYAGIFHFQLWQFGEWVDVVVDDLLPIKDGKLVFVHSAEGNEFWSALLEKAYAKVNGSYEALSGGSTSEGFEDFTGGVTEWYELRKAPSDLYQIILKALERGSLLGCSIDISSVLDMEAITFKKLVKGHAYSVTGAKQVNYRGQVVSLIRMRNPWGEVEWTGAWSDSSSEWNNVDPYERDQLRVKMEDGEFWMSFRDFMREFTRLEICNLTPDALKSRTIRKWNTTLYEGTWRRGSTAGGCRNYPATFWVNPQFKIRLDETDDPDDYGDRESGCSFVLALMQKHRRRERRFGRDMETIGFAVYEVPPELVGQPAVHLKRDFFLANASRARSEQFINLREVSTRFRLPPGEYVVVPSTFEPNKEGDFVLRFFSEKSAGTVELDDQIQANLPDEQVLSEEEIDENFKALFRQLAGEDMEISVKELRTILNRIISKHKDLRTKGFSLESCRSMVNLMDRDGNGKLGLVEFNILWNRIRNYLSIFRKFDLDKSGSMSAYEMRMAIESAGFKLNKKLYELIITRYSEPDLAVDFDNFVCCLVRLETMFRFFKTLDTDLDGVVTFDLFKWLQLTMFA
T1 sequence (P04632 1-268 partner): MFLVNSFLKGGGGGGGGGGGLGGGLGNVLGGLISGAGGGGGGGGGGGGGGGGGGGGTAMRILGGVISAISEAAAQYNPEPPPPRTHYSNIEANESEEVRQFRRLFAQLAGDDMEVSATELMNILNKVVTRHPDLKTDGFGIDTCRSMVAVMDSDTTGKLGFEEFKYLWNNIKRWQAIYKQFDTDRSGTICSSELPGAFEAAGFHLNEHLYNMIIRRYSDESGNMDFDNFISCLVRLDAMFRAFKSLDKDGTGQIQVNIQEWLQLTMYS
Procedure: (§1) The inhibitory activities against papain, CANP and cathepsin B were measured according to the following methods, and results are shown in Table 1.
The measurement was carried out according to the method of S. Ishiura et al (J. Biochem., vol. 84, p. 225 (1978)].
Each of 0.45 ml of the reaction solutions containing 25 mM 2-mercaptoethanol, 5 mM calcium chloride, 0.1 M sodium glycerophosphate-HCl buffer (pH 7.5), 0.24% alkali-denatured casein, 1% dimethylsulfoxide and various concentrations of the test drug was preincubated accurately at 30° C. for 5 minutes, and 50 μl of a solution containing 5 μg of μ CANP (Calpain I, produced by Nacalai Tesque Inc.) was added for starting the reaction. After exact incubation at 30° C. for 20 minutes, the reaction was stopped by addition of 0.5 ml of 10% trichloroacetic acid. After being allowed to stand at room temperature for 60 minutes, the mixture was centrifuged at 3000 × g for 5 minutes, and the absorbance at 280 nm of the supernatant was determined. The remaining activity was obtained by reducing the blank value which was obtained in a similar manner to the above but adding 10% trichloroacetic acid prior to addition of μ CANP from the above value. […]

cathepsin B = biological target: T2, cathepsin B (Homo sapiens, UniProt P07858); test: Inhibitory Activity against Cathepsin B; conditions: pH 6.0, 40° C., preincubated 3 minutes, incubation 10 minutes, substrate benzyloxycarbonyl-L-phenylalanyl-L-arginine 4-methylcoumaryl-7-amide
T2 construct: purchased Sigma Chemical Co
Procedure: To each of 0.95 ml of the reaction solutions containing 2.5 mM 2-mercaptoethanol, 1 mM disodium ethylenediaminetetraacetate, 0.1 M sodium potassium phosphate buffer (pH 6.0), 0.1% Brij-35 (produced by Nacalai Tesque Inc.), 1% dimethyl sulfoxide and various concentrations of the test drug was added 25 μl of 200 nM cathepsin B solution (produced by Sigma Chemical Co.), and the mixture was preincubated at 40° C. for 3 minutes, after which 25 μl of 200 μM benzyloxycarbonyl-L-phenylalanyl-L-arginine 4-methylcoumaryl-7-amide (produced by Peptide Institute Inc.) was added for starting the reaction After incubation at 40° C. for 10 minutes, the reaction was stopped by addition of 1 ml of 100 mM sodium acetate buffer (pH 4.3) containing 100 nM sodium chloroacetate. The fluorescence of the liberated 7-amino-4-methyl-coumarine was determined using a Shimazu fluorometer RP-5000 with excitation at 380 nm and emission measured at 440 nm.

papain = biological target: T3, papain (Carica papaya, UniProt P00784); test: Inhibitory Activity Against Papain
T3 construct: purchased Sigma Chemical Co
T3 sequence (P00784 134-345): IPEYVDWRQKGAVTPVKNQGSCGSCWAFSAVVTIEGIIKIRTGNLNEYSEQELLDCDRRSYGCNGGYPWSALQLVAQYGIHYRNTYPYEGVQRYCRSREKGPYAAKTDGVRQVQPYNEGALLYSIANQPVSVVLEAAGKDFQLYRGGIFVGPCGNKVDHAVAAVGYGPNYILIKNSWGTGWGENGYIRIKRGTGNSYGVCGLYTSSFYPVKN
Procedure: as §1
The measurement was carried out according to the method of A. J. Barrett et al [Biochem. J., vol. 201, p. 189 (1982)].
To each of 0.95 ml of the reaction solutions containing 2.5 mM 2-mercaptoethanol, 1 mM disodium ethylenediaminetetraacetate, 0.1 M sodium potassium phosphate buffer (pH 6.8), 0.1% Brij-35 (produced by Nacalai Tesque Inc.), 1% dimethyl sulfoxide and various concentrations of the test drug was added 25 μl of a papain solution (produced by Sigma Chemical Co.), and the mixture was preincubated at 40° C. for 3 minutes, after which 25 μl of 200 μM benzyloxycarbonyl-L-phenylalanyl-L-arginine 4-methylcoumaryl-7-amide (produced by Peptide Institute Inc.) was added for starting the reaction After incubation at 40° C. for 10 minutes, the reaction was stopped by addition of 1 ml of 100 mM sodium acetate buffer solution (pH 4.3) containing 100 mM sodium chloroacetate. The fluorescence of the liberated 7-amino-4-methylcoumarine was determined using a Shimazu fluorometer RF-5000 with excitation at 380 nm and emission measured at 440 nm. […]

IC50 (papain; pH 6.8, 40° C., preincubated 3 minutes, incubation 10 minutes, substrate benzyloxycarbonyl-L-phenylalanyl-L-arginine 4-methylcoumaryl-7-amide, read-out: Inhibitory Activity Value [IC50 (nM)] Papain) | Compound | IC50 (μ CANP (Calpain I)) | IC50 (cathepsin B) | IC50 (papain)
– | CCCCCNC(=O)[C@H]1O[C@@H]1C(=O)N[C@H](C(=O)N1CCC[C@H]1C(=O)O)[C@@H](C)CC [Compound 8d] | > 200000 nM | 32 nM | 26000 nM
57400 nM | CCCNC(=O)[C@H]1O[C@@H]1C(=O)N[C@H](C(=O)N1CCC[C@H]1C(=O)O)[C@@H](C)CC [Compound 1d, N-(L-3-trans-n-propylcarbamoyloxirane-2-carbonyl)-L-isoleucyl-L-proline] | > 200000 nM | – | –
